Measured values reported in patent US4986982A, “Cosmetic composition” (priority 1988, dated 1991).

Legend:
physchem = details: 100 mm phosphate buffer
Experimental: (§1) (i) The chosen ester of pyroglutamic acid was dissolved in aqueous buffer of a selected pH value, to provide a 0.1% w/v solution of the ester;
(§2) (ii) Intact (unhydrolysed) ester was analysed by high performance liquid chromatography at regular time intervals.
(§3) (iii) The log of the amount of the ester remaining intact versus time was plotted to give a straight line response.
(§4) (iv) From this plot, the time required for half of the ester of pyroglutamic acid to be hydrolysed (half of the ester remaining intact), can be determined if necessary by extrapolation.
(§5) *Assay performed in 100 mM phosphate buffer at 30° C.

[1] = Stability of esters of pyroglutamic acid in aqueous buffer (half-life of hydrolysis, intact ester by HPLC)
Experimental: as §1, §2, §3, §4, §5

[2] = Delivery of pyroglutamic acid to the stratum corneum after topical application of tritiated esters to the arms of volunteers (radio-tracer technique); type: in vivo, human; details: [3H] pyroglutamic acid applied topically instead of ester
Source text: Accordingly, [^3 H] esters of pyroglutamic acid were each dissolved at 1% w/v in anhydrous ethanol or in an oil-in-water emulsion base. […] The [^3 H] pyroglutamic acid was separated from unchanged ester by chromotography on AG1X8 resin and the amount delivered to the skin expressed as nmoles per mg of stratum corneum protein.

CCOC(=O)C(C)OC(=O)C1CCC(=O)N1 (stereo not shown) [Ethyl-2-[pyroglutamoyloxy]-n-propionate, ethyl-2-[pyroglutamoyloxy]-n-propionate]
half-life (physchem; pH 4): 70.8 days
half-life (physchem; pH 7): 0.375 days

CCOC(=O)[C@@H]1CCC(=O)N1 [Pyroglutamic acid ethyl ester, pyroglutamic acid ethyl ester]
half-life ([1]; 100 mm phosphate buffer, pH 4): 11000 h
half-life ([1]; 100 mm phosphate buffer, pH 7): 58 h
half-life ([1]; aqueous buffer, pH 6.5): 288 h
half-life ([1]; aqueous buffer, pH 6.8): 168 h
half-life ([1]; aqueous buffer, pH 7): 57.6 h
half-life ([1]; aqueous buffer, pH 7.4): 48 h
half-life ([1]; aqueous buffer, pH 7.8): 24 h

CCCCCCCCOC(=O)[C@@H]1CCC(=O)N1 [Pyroglutamic acid n-octyl ester, pyroglutamic acid n-octyl ester]
half-life (physchem; pH 4): 750 days
half-life (physchem; pH 7): 4 days

CCCCOC(=O)[C@@H]1CCC(=O)N1 [Pyroglutamic acid n-butyl ester, pyroglutamic acid n-butyl ester]
half-life (physchem; pH 4): 625 days
half-life (physchem; pH 7): 3.33 days

O=C1CCC(C(=O)O)N1 (stereo not shown) [[^3 H] pyroglutamic acid, 2-pyrrolidone-5-carboxylic acid]
amount of tritiated free acid recovered from the stratum corneum [2]: negligible amount

CCCCCCOC(=O)[C@@H]1CCC(=O)N1 [Pyroglutamic acid n-hexyl ester, pyroglutamic acid n-hexyl ester]
half-life (physchem; pH 4): 750 days
half-life (physchem; pH 7): 4 days
